# Reference: PubChem BioAssay (NCI)
#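 Here, GI50 denotes the concentration required for 50% inhibition of growth. TGI: concentration producing complete growth inhibition.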
# How the values were obtained:
# Experiment in all cases: NCI tumour cell line growth inhibition, 384-well format
# [1] = system: 786-0 renal
# [2] = system: A498 renal
# [3] = system: A549 NSCLC
# [4] = system: ACHN renal
# [5] = system: BT-549 breast
# [6] = system: CAKI-1 renal
# [7] = system: CCRF-CEM leukemia
# [8] = system: COLO 205 colon
# [9] = system: DU-145 prostate
# [10] = system: EKVX NSCLC
# [11] = system: HCC-2998 colon
# [12] = system: HCT-116 colon
# [13] = system: HCT-15 colon
# [14] = system: HL-60(TB) leukemia
# [15] = system: HOP-62 NSCLC
# [16] = system: HOP-92 NSCLC
# [17] = system: HS 578T breast
# [18] = system: HT29 colon
# [19] = system: IGROV1 ovarian
# [20] = system: K-562 leukemia
# [21] = system: KM12 colon
# [22] = system: LOX IMVI melanoma
# [23] = system: M14 melanoma
# [24] = system: MALME-3M melanoma
# [25] = system: MCF7 breast
# [26] = system: MDA-MB-231 breast
# [27] = system: MDA-MB-435 melanoma
# [28] = system: MDA-MB-468 breast
# [29] = system: MOLT-4 leukemia
# [30] = system: NCI-H226 lung
# [31] = system: NCI-H23 lung
# [32] = system: NCI-H322M lung
# [33] = system: NCI-H460 NSCLC
# [34] = system: NCI-H522 lung
# [35] = system: NCI/ADR-RES ovarian
# [36] = system: OVCAR-3 ovarian
# [37] = system: OVCAR-4 ovarian
# [38] = system: OVCAR-5 ovarian
# [39] = system: OVCAR-8 ovarian
# [40] = system: PC-3 prostate
# [41] = system: RPMI-8226 leukemia
# [42] = system: RXF 393 renal
# [43] = system: SF-268 CNS
# [44] = system: SF-295 CNS
# [45] = system: SF-539 CNS
# [46] = system: SK-MEL-28 melanoma
# [47] = system: SK-MEL-5 melanoma
# [48] = system: SK-OV-3 ovarian
# [49] = system: SN12C renal
# [50] = system: SNB-19 CNS
# [51] = system: SNB-75 CNS
# [52] = system: SW-620 colon
# [53] = system: T-47D breast
# [54] = system: TK-10 renal
# [55] = system: U251 glioblastoma
# [56] = system: UACC-257 melanoma
# [57] = system: UACC-62 melanoma
# [58] = system: UO-31 renal
# [59] = system: SR leukemia
smiles,measurement,setting,value
Cc1ccc(NC(=O)c2ccnc(C(F)(F)F)c2)cc1-c1cc(OCCO)nc(N2CCOCC2)c1,GI50,[1],0.997 µM
same,TGI,[1],11.7 µM
same,GI50,[2],1.2 µM
same,TGI,[2],7.92 µM
same,GI50,[3],0.591 µM
same,TGI,[3],14.5 µM
same,GI50,[4],0.787 µM
same,TGI,[4],12.3 µM
same,GI50,[5],1.21 µM
same,TGI,[5],6.68 µM
same,GI50,[6],0.847 µM
same,TGI,[6],18.1 µM
same,GI50,[7],0.385 µM
same,TGI,[7],1.46 µM
same,GI50,[8],0.214 µM
same,TGI,[8],1.12 µM
same,GI50,[9],2.42 µM
same,TGI,[9],> 100 µM
same,GI50,[10],2.85 µM
same,TGI,[10],14.8 µM
same,GI50,[11],0.224 µM
same,TGI,[11],1.27 µM
same,GI50,[12],0.243 µM
same,TGI,[12],2.48 µM
same,GI50,[13],0.339 µM
same,TGI,[13],9.05 µM
same,GI50,[14],0.068 µM
same,TGI,[14],1.09 µM
same,GI50,[15],1.23 µM
same,TGI,[15],11.5 µM
same,GI50,[16],0.928 µM
same,TGI,[16],3.49 µM
same,GI50,[17],1.19 µM
same,TGI,[17],3.65 µM
same,GI50,[18],0.306 µM
same,TGI,[18],1.99 µM
same,GI50,[19],0.697 µM
same,TGI,[19],11.4 µM
same,GI50,[20],0.428 µM
same,TGI,[20],1.72 µM
same,GI50,[21],0.523 µM
same,TGI,[21],5.77 µM
same,GI50,[22],0.171 µM
same,TGI,[22],1.17 µM
same,GI50,[23],0.129 µM
same,TGI,[23],0.603 µM
same,GI50,[24],0.0856 µM
same,TGI,[24],0.316 µM
same,GI50,[25],0.951 µM
same,TGI,[25],10.9 µM
same,GI50,[26],0.0373 µM
same,TGI,[26],12.1 µM
same,GI50,[27],0.289 µM
same,TGI,[27],0.922 µM
same,GI50,[28],0.359 µM
same,TGI,[28],1.27 µM
same,GI50,[29],0.172 µM
same,TGI,[29],0.317 µM
same,GI50,[30],0.577 µM
same,TGI,[30],6.56 µM
same,GI50,[31],0.0792 µM
same,TGI,[31],1.1 µM
same,GI50,[32],2.01 µM
same,TGI,[32],16.2 µM
same,GI50,[33],0.379 µM
same,TGI,[33],10.6 µM
same,GI50,[34],0.274 µM
same,TGI,[34],0.755 µM
same,GI50,[35],2.19 µM
same,TGI,[35],5.24 µM
same,GI50,[36],0.461 µM
same,TGI,[36],1.79 µM
same,GI50,[37],3.87 µM
same,TGI,[37],20 µM
same,GI50,[38],0.675 µM
same,TGI,[38],8.88 µM
same,GI50,[39],0.777 µM
same,TGI,[39],4.6 µM
same,GI50,[40],0.75 µM
same,TGI,[40],14.2 µM
same,GI50,[41],0.344 µM
same,TGI,[41],0.974 µM
same,GI50,[42],0.342 µM
same,TGI,[42],1.96 µM
same,GI50,[43],0.211 µM
same,TGI,[43],0.532 µM
same,GI50,[44],0.569 µM
same,TGI,[44],13.9 µM
same,GI50,[45],0.927 µM
same,TGI,[45],3.75 µM
same,GI50,[46],0.253 µM
same,TGI,[46],0.758 µM
same,GI50,[47],0.155 µM
same,TGI,[47],0.437 µM
same,GI50,[48],1.78 µM
same,TGI,[48],17.8 µM
same,GI50,[49],1.18 µM
same,TGI,[49],10.4 µM
same,GI50,[50],2.38 µM
same,TGI,[50],18 µM
same,GI50,[51],1.34 µM
same,TGI,[51],9.72 µM
same,GI50,[52],0.282 µM
same,TGI,[52],10.5 µM
same,GI50,[53],0.754 µM
same,TGI,[53],5.92 µM
same,GI50,[54],1.03 µM
same,TGI,[54],87.6 µM
same,GI50,[55],0.595 µM
same,TGI,[55],5.43 µM
same,GI50,[56],0.272 µM
same,TGI,[56],1.31 µM
same,GI50,[57],0.152 µM
same,TGI,[57],0.526 µM
same,GI50,[58],1.12 µM
same,TGI,[58],3.41 µM
Nc1nc(-n2cccn2)nc(-n2cccn2)c1Br,GI50,[1],> 100 µM
same,TGI,[1],> 100 µM
same,GI50,[2],> 100 µM
same,TGI,[2],> 100 µM
same,GI50,[3],> 100 µM
same,TGI,[3],> 100 µM
same,GI50,[4],> 100 µM
same,TGI,[4],> 100 µM
same,GI50,[5],> 100 µM
same,TGI,[5],> 100 µM
same,GI50,[6],> 100 µM
same,TGI,[6],> 100 µM
same,GI50,[7],> 100 µM
same,TGI,[7],> 100 µM
same,GI50,[8],> 100 µM
same,TGI,[8],> 100 µM
same,GI50,[9],> 100 µM
same,TGI,[9],> 100 µM
same,GI50,[10],> 100 µM
same,TGI,[10],> 100 µM
same,GI50,[11],> 100 µM
same,TGI,[11],> 100 µM
same,GI50,[12],> 100 µM
same,TGI,[12],> 100 µM
same,GI50,[13],> 100 µM
same,TGI,[13],> 100 µM
same,GI50,[14],> 100 µM
same,TGI,[14],> 100 µM
same,GI50,[15],> 100 µM
same,TGI,[15],> 100 µM
same,GI50,[16],> 100 µM
same,TGI,[16],> 100 µM
same,GI50,[17],> 100 µM
same,TGI,[17],> 100 µM
same,GI50,[18],> 100 µM
same,TGI,[18],> 100 µM
same,GI50,[19],> 100 µM
same,TGI,[19],> 100 µM
same,GI50,[20],> 100 µM
same,TGI,[20],> 100 µM
same,GI50,[21],> 100 µM
same,TGI,[21],> 100 µM
same,GI50,[22],> 100 µM
same,TGI,[22],> 100 µM
same,GI50,[23],> 100 µM
same,TGI,[23],> 100 µM
same,GI50,[24],> 100 µM
same,TGI,[24],> 100 µM
same,GI50,[25],> 100 µM
same,TGI,[25],> 100 µM
same,GI50,[26],> 100 µM
same,TGI,[26],> 100 µM
same,GI50,[27],> 100 µM
same,TGI,[27],> 100 µM
same,GI50,[28],> 100 µM
same,TGI,[28],> 100 µM
same,GI50,[29],> 100 µM
same,TGI,[29],> 100 µM
same,GI50,[30],> 100 µM
same,TGI,[30],> 100 µM
same,GI50,[31],> 100 µM
same,TGI,[31],> 100 µM
same,GI50,[32],> 100 µM
same,TGI,[32],> 100 µM
same,GI50,[33],> 100 µM
same,TGI,[33],> 100 µM
same,GI50,[34],> 100 µM
same,TGI,[34],> 100 µM
same,GI50,[35],> 100 µM
same,TGI,[35],> 100 µM
same,GI50,[36],> 100 µM
same,TGI,[36],> 100 µM
same,GI50,[37],> 100 µM
same,TGI,[37],> 100 µM
same,GI50,[39],> 100 µM
same,TGI,[39],> 100 µM
same,GI50,[40],> 100 µM
same,TGI,[40],> 100 µM
same,GI50,[41],> 100 µM
same,TGI,[41],> 100 µM
same,GI50,[42],> 100 µM
same,TGI,[42],> 100 µM
same,GI50,[43],> 100 µM
same,TGI,[43],> 100 µM
same,GI50,[44],> 100 µM
same,TGI,[44],> 100 µM
same,GI50,[45],> 100 µM
same,TGI,[45],> 100 µM
same,GI50,[46],> 100 µM
same,TGI,[46],> 100 µM
same,GI50,[47],> 100 µM
same,TGI,[47],> 100 µM
same,GI50,[48],> 100 µM
same,TGI,[48],> 100 µM
same,GI50,[49],> 100 µM
same,TGI,[49],> 100 µM
same,GI50,[50],> 100 µM
same,TGI,[50],> 100 µM
same,GI50,[51],> 100 µM
same,TGI,[51],> 100 µM
same,GI50,[59],> 100 µM
same,TGI,[59],> 100 µM
same,GI50,[52],> 100 µM
same,TGI,[52],> 100 µM
same,GI50,[53],> 100 µM
same,TGI,[53],> 100 µM
same,GI50,[54],> 100 µM
same,TGI,[54],> 100 µM
same,GI50,[55],> 100 µM
same,TGI,[55],> 100 µM
same,GI50,[56],> 100 µM
same,TGI,[56],> 100 µM
same,GI50,[57],> 100 µM
same,TGI,[57],> 100 µM
same,GI50,[58],> 100 µM
same,TGI,[58],> 100 µM
